Literature values in patent publication US11804282B1, “Systems and methods for drug clustering” (nference, Inc., priority 2018, dated 2023).

How the values were obtained:
VEGFR2 protein = VEGFR2 protein (Homo sapiens, UniProt P35968); details: poly-protein screening (FIG. 4 inset)
[1] = test system: distinct purified proteins; details: proteome-wide screening data (FIG. 3 inset)

VEGFR2 protein, sequence (P35968 20-1356): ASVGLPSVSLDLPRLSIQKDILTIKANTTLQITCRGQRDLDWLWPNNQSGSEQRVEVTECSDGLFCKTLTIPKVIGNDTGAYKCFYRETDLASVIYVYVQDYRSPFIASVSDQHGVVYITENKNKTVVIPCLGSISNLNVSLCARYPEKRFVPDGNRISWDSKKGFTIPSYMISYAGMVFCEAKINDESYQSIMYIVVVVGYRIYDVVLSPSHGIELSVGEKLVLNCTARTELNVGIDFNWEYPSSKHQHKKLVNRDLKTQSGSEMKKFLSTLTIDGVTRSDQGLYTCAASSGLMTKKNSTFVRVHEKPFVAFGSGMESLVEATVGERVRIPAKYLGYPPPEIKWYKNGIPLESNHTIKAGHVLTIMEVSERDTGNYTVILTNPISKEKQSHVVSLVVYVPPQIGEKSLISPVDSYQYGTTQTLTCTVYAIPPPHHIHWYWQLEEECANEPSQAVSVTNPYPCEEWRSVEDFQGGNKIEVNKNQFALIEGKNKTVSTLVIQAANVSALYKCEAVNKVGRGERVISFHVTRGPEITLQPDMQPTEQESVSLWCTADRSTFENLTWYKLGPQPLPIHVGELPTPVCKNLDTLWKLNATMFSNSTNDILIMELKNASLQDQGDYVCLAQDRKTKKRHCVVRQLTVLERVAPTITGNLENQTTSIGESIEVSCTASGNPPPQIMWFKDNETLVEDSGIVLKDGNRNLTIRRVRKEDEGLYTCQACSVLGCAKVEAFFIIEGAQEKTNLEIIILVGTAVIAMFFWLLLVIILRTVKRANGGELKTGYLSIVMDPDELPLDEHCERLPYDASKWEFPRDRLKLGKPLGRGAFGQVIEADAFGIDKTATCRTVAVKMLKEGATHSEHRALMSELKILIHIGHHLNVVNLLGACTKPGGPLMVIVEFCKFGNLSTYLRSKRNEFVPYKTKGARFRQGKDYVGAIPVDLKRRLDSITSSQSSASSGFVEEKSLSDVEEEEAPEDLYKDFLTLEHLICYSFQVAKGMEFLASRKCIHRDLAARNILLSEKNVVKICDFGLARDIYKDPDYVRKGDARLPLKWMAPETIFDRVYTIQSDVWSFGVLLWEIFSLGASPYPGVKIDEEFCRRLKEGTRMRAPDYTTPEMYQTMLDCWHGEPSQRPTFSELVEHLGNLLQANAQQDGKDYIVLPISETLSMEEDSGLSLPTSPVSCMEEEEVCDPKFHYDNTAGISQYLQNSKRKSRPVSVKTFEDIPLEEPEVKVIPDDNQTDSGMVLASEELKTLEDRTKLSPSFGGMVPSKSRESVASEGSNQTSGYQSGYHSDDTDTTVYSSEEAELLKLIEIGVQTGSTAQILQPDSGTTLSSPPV

Cc1ccc(NC(=O)c2ccc(CN3CCN(C)CC3)cc2)cc1Nc1nccc(-c2cccnc2)n1 [imatinib]
affinity to the VEGFR2 protein (VEGFR2 protein): almost no affinity | number of distinct purified proteins bound [1]: less than 50 distinct purified proteins
